Here are results for five compounds from US20210002623A1, “AMINOPEPTIDASE AND ITS USES” (Centre national de la recherche scientifique, priority 2017, published 2021).

In assay [1] the target is T1, MjTET (Methanocaldococcus jannaschii, UniProt Q57975).
T1 construct: made in house; host or cells: Escherichia coli ArcticExpress (DE3)-RIL
T1 sequence (Q57975 1-350): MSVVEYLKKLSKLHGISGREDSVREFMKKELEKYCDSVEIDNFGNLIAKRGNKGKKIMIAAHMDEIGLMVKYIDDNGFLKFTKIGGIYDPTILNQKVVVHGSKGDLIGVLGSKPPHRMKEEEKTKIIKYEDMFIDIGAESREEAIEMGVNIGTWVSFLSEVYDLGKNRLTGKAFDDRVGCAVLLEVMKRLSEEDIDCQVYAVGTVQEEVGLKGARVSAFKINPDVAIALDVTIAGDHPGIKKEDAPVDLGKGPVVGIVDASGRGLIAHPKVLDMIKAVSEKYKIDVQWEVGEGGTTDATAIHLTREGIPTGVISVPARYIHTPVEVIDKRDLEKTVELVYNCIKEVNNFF
In words: Effect of metal cations on MjTET activity. As to conditions: 5 mM Leu-pNA, pH 8.5, 75° C., 5 min. Format: biochemical. As to the method:
The metal cations XCl2 were incubated at 0.1 mM concentration with 4 μg/mL of MjTET and 5 mM of Leu-pNA in 50 mM CHES, 150 mM KCl, pH 8.5 for 5 min at 75° C. To assess the effect of metal cations on MjTET activity, the enzymatic reaction was followed as described before.

Assay [2] deals with T1, MjTET. In words: Effect of inhibitors on MjTET activity (Leu-pNA hydrolysis). Format: biochemical. The note with it: 5 mM Leu-pNA, 0.1 mM CoCl2, pH 8.5, 85° C., 5 min. As to the method: The inhibitory effect of EDTA, Amastatine and Bestatine was tested on the MjTET enzymatic activity. 4 μg/mL of MjTET were incubated with each inhibitor separately in the presence of 5 mM Leu-pNA, 50 mM CHES, 150 mM KCl, 0.1 mM CoCl2, pH 8.5 at 85° C. for 5 min. Three replicates (with inhibitor) and two controls (without inhibitor) were assayed for each experimental point.

For `[Cl-].[Cl-].[Zn+2]` [ZnCl2], the “effect on MjTET LAP activity” value on MjTET [1] (0.1 mM ZnCl2) was “significant inhibition”.

In the case of `O=C(O)CN(CCN(CC(=O)O)CC(=O)O)CC(=O)O` [EDTA], the “inhibition of MjTET enzymatic activity” value against MjTET [2] (5 mM EDTA) is given as “completely inhibited”.

Regarding `[Cl-].[Cl-].[Co+2]` [cobalt ions], at MjTET [1] (0.1 mM metal cation), the “effect on MjTET LAP activity” value is given as “increase of LAP activity”.

With `CC(C)C[C@H](NC(=O)[C@@H](O)[C@H](N)Cc1ccccc1)C(=O)O` [bestatine], the “inhibition of MjTET LAP activity” value against MjTET [2] (1 mM bestatine) is given as “completely inhibited”.

Turning to `CC(C)C[C@@H](N)[C@H](O)C(=O)N[C@H](C(=O)N[C@H](C(=O)N[C@@H](CC(=O)O)C(=O)O)C(C)C)C(C)C` [amastatine], the “inhibition of MjTET LAP activity” value against MjTET [2] (0.2 mM amastatine) is given as “completely inhibited”.
